ChEMBL document CHEMBL4138121, “Selective photocytotoxicity of anthrols on cancer stem-like cells: The effect of quinone methides or reactive oxygen species” (Eur J Med Chem, 2017)
pIC50: −log10 of the molar value. Active and inactive are the calls of the source. The calls are words filed in the database; no cut-off is given here.

Legend:
[1] = system: HMLE; assay: Cell cycle arrest in HMLE-shEcad cells assessed as accumulation at G2/M phase at 1 to 10 uM irradiated at 420 nm at 4 hrs post compound addition for 5 mins measured after 24 to 48 hrs by propidium iodide staining-based flow cytometric method; assay type: functional; details: Homo sapiens
[2] = Drug uptake in cytoplasm of HMLE-shGFP cells at 5 uM irradiated with UV-light measured after 2 to 3 hrs by confocal microscopic method; assay type: ADME, subcellular; details: human
[3] = Dark toxicity against HMLE-shGFP cells after 72 hrs by MTT assay; assay type: cell-based; details: human
[4] = Dark toxicity against HMLE-shEcad cells after 72 hrs by MTT assay; assay type: cell-based; details: human
[5] = system: HMLE; assay: Cytotoxicity against HMLE-shEcad cells at 10 uM irradiated at 420 nm at 4 hrs post compound addition for 5 mins measured after 48 hrs by propidium iodide staining-based flow cytometric method; assay type: functional, cell-based; details: Homo sapiens
[6] = Anticlonogenic activity against HMLE-shGFP cells at 0.5 to 1 uM irradiated at 350 nm at 4 hrs post compound addition for 5 mins measured after 24 hrs by crystal violet staining-based assay; assay type: ADME, cell-based; details: human
[7] = Cell cycle arrest in HMLE-shEcad cells assessed as delay in G1/S phase at 1 to 10 uM after 24 to 48 hrs in absence of irradiation by propidium iodide staining-based flow cytometric method; details: human
[8] = Cell cycle arrest in HMLE-shGFP cells assessed as accumulation at G2/M phase at 1 to 10 uM irradiated at 420 nm at 4 hrs post compound addition for 5 mins measured after 24 to 48 hrs by propidium iodide staining-based flow cytometric method; details: human
[9] = Dark toxicity against human HCT116 cells after 72 hrs by MTT assay; assay type: cell-based, HCT-116
[10] = Photocytotoxicity against HMLE-shEcad cells assessed as growth inhibition irradiated at 420 nm at 4, 24, 48 hrs post compound addition for 5 mins measured after 72 hrs by MTT assay; assay type: functional, cell-based; details: Homo sapiens, light or radiation study
[11] = Cytotoxicity against HMLE-shGFP cells at 10 uM irradiated at 420 nm at 4 hrs post compound addition for 5 mins measured after 48 hrs by propidium iodide staining-based flow cytometric method; assay type: cell-based; details: human
[12] = Photocytotoxicity against HMLE-shGFP cells assessed as growth inhibition irradiated at 350 nm at 4, 24, 48 hrs post compound addition for 5 mins measured after 72 hrs by MTT assay; assay type: cell-based; details: Homo sapiens, light or radiation study
[13] = system: SUM-159-PT; assay: Cell cycle arrest in human SUM159 cells in presence of irradiation; assay type: functional, cell-based
[14] = system: SUM-159-PT; assay: Photocytotoxicity against human SUM159 cells assessed as growth inhibition irradiated at 420 nm at 4, 24, 48 hrs post compound addition for 5 mins measured after 72 hrs by MTT assay; assay type: functional, cell-based; details: light or radiation study
[15] = system: HCT-116; assay: Photocytotoxicity against human HCT116 cells assessed as growth inhibition irradiated at 350 nm at 4, 24, 48 hrs post compound addition for 5 mins measured after 72 hrs by MTT assay; assay type: functional, cell-based; details: HCT-116, light or radiation study
[16] = Dark toxicity against human SUM159 cells after 72 hrs by MTT assay; assay type: cell-based, SUM-159-PT
[17] = Induction of reactive oxygen species generation in HMLE-shGFP cells at 10 uM irradiated at 420 nm for 5 mins measured after 2 hrs by H2DCF-DA dye-based FACS analysis relative to non-irradiated cells; assay type: cell-based; details: human
[18] = Dark toxicity against human H460 cells after 72 hrs by MTT assay; assay type: cell-based, NCI-H460
[19] = Drug uptake in nucleus of HMLE-shGFP cells at 5 uM irradiated with UV-light measured after 2 to 3 hrs by confocal microscopic method; assay type: ADME, subcellular; details: human
[20] = Cell cycle arrest in HMLE-shGFP cells assessed as accumulation at S phase at 1 to 10 uM irradiated at 420 nm at 4 hrs post compound addition for 5 mins measured after 24 to 48 hrs by propidium iodide staining-based flow cytometric method; details: human
[21] = system: MCF7; assay: Photocytotoxicity against human MCF7 cells assessed as growth inhibition irradiated at 350 nm at 4, 24, 48 hrs post compound addition for 5 mins measured after 72 hrs by MTT assay; assay type: functional, cell-based; details: MCF7, light or radiation study
[22] = system: NCI-H460; assay: Photocytotoxicity against human H460 cells assessed as growth inhibition irradiated at 350 nm at 4, 24, 48 hrs post compound addition for 5 mins measured after 72 hrs by MTT assay; assay type: functional, cell-based; details: NCI-H460, light or radiation study
[23] = system: NCI-H460; assay: Photocytotoxicity against human H460 cells assessed as growth inhibition irradiated at 420 nm at 4, 24, 48 hrs post compound addition for 5 mins measured after 72 hrs by MTT assay; assay type: functional, cell-based; details: NCI-H460, light or radiation study
[24] = Photocytotoxicity against HMLE-shGFP cells assessed as growth inhibition irradiated at 420 nm at 4, 24, 48 hrs post compound addition for 5 mins measured after 72 hrs by MTT assay; assay type: cell-based; details: Homo sapiens, light or radiation study
[25] = system: HCT-116; assay: Photocytotoxicity against human HCT116 cells assessed as growth inhibition irradiated at 420 nm at 4, 24, 48 hrs post compound addition for 5 mins measured after 72 hrs by MTT assay; assay type: functional, cell-based; details: HCT-116, light or radiation study
[26] = Drug uptake in cytoplasm of HMLE-shEcad cells at 5 uM irradiated with UV-light measured after 2 to 3 hrs by confocal microscopic method; assay type: ADME, subcellular; details: human
[27] = Drug uptake in nucleus of HMLE-shEcad cells at 5 uM irradiated with UV-light measured after 2 to 3 hrs by confocal microscopic method; assay type: ADME, subcellular; details: human
[28] = Photocytotoxicity against HMLE-shEcad cells assessed as growth inhibition irradiated at 350 nm at 4, 24, 48 hrs post compound addition for 5 mins measured after 72 hrs by MTT assay; assay type: functional, cell-based; details: Homo sapiens, light or radiation study
[29] = Induction of reactive oxygen species generation in HMLE-shEcad cells at 10 uM irradiated at 420 nm for 5 mins measured after 2 hrs by H2DCF-DA dye-based FACS analysis relative to non-irradiated cells; assay type: functional, Homo sapiens
[30] = system: MCF7; assay: Cell cycle arrest in human MCF7 cells in presence of irradiation; assay type: functional, cell-based
[31] = system: HMLE; assay: Cell cycle arrest in HMLE-shEcad cells assessed as accumulation at S phase at 1 to 10 uM irradiated at 420 nm at 4 hrs post compound addition for 5 mins measured after 24 to 48 hrs by propidium iodide staining-based flow cytometric method; assay type: functional; details: Homo sapiens
[32] = system: HMLE; assay: Anticlonogenic activity against HMLE-shEcad cells at 0.5 to 1 uM irradiated at 350 nm at 4 hrs post compound addition for 5 mins for 5 mins measured after 24 hrs by crystal violet staining-based assay; assay type: functional, cell-based; details: Homo sapiens
[33] = system: MCF7; assay: Photocytotoxicity against human MCF7 cells assessed as growth inhibition irradiated at 420 nm at 4, 24, 48 hrs post compound addition for 5 mins measured after 72 hrs by MTT assay; assay type: functional, cell-based; details: MCF7, light or radiation study

With `OCc1ccc2cc3ccccc3cc2c1` the Activity [1] was “Active”, the Drug uptake [2] was “Active” and the IC50 at 72 h [3] was 33 µM. For the same molecule, the IC50 at 72 h [4] was 22 µM, the Activity [5] was “Active” and the Activity [6] was “Non-Toxic”. The Activity [7] was “Toxic”, the Activity [8] was “Non-Toxic” and the IC50 at 72 h [9] was > 100 µM. The pIC50 [10] was 5.70, the Activity [11] was “Toxic” and the pIC50 [12] was 6.22. For the same molecule, the Activity [13] was “inactive”, the pIC50 [14] was 6.00 and the pIC50 [15] was 6.00. For the same molecule, the IC50 at 72 h [16] was 13 µM, the “fold change (FC)” value [17] was 4 and the IC50 at 72 h [18] was 33 µM. The Drug uptake [19] was “Not Active”, the Activity [20] was “Non-Toxic” and the pIC50 [21] was 6.30. The pIC50 [22] was 6.00, the pIC50 [23] was 5.70 and the pIC50 [24] was 5.00. The pIC50 [25] was 5.70, the Drug uptake [26] was “Active” and the Drug uptake [27] was “Not Active”. The pIC50 [28] was 6.00, the “fold change (FC)” value [29] was 7 and the Activity [30] was “inactive”. For the same molecule, the Activity [31] was “Active”, the Activity [32] was “inactive” and the pIC50 [33] was 5.70.
